Assay results: PubChem BioAssay AID1963973 (Molecular Pharmacology Branch, DTP, NCI, 2024)
Values joined by “and” are separate entries in the source; they are usually repeats but may differ in a detail not shown here. Equal values may be shown once.

Test system: 883617-216-R-J1-PDC tumor spheroids, viability
Assay: Anticancer human tumor 883617-216-R-J1-PDC patient-derived bladder carcinoma cell line growth inhibition [PI3K]
Details: spheroids with HUVEC and MSC; for viability, T/C: stronger effect = lower value
Procedure, shortened: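 Tumor cells were combined with HUVEC and MSCs into spheroids, then dosed with PI3K-inhibitor combinations over half-log ranges capped near clinical Cmax or 10 microM.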

[1] = curve of first compound, second compound 0.0316 µM
[2] = curve of first compound, second compound 0.1 µM
[3] = curve of first compound, second compound 0.316 µM
[4] = curve of first compound, second compound 1 µM
[5] = second compound 0.0316 µM, first compound 0.0316 µM
[6] = second compound 0.0316 µM, first compound 0.1 µM
[7] = second compound 0.0316 µM, first compound 0.316 µM
[8] = second compound 0.0316 µM, first compound 1 µM
[9] = second compound 0.0316 µM, first compound 3.16 µM
[10] = second compound 0.0316 µM, first compound 10 µM
[11] = second compound 0.1 µM, first compound 0.0316 µM
[12] = second compound 0.1 µM, first compound 0.1 µM
[13] = second compound 0.1 µM, first compound 0.316 µM
[14] = second compound 0.1 µM, first compound 1 µM
[15] = second compound 0.1 µM, first compound 3.16 µM
[16] = second compound 0.1 µM, first compound 10 µM
[17] = second compound 0.316 µM, first compound 0.0316 µM
[18] = second compound 0.316 µM, first compound 0.1 µM
[19] = second compound 0.316 µM, first compound 0.316 µM
[20] = second compound 0.316 µM, first compound 1 µM
[21] = second compound 0.316 µM, first compound 3.16 µM
[22] = second compound 0.316 µM, first compound 10 µM
[23] = second compound 1 µM, first compound 0.0316 µM
[24] = second compound 1 µM, first compound 0.1 µM
[25] = second compound 1 µM, first compound 0.316 µM
[26] = second compound 1 µM, first compound 1 µM
[27] = second compound 1 µM, first compound 3.16 µM
[28] = second compound 1 µM, first compound 10 µM
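Also: spheroids exposed to agents for 7 days before the viability read.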

Cn1ncc(Cl)c1-c1cc(C(=O)NC(CN)Cc2cccc(F)c2)sc1Cl (stereo unspecified) + Cc1nc(NC(=O)N2CCCC2C(N)=O)sc1-c1ccnc(C(C)(C)C(F)(F)F)c1
IC50 [1]: 0.249 µM
IC50 [2]: 0.236 µM
IC50 [3]: < 0.0316 µM
IC50 [4]: < 0.0316 µM
IC50 (curve of first compound, second compound 3.16 µM): < 0.0316 µM
IC50 (curve of first compound, second compound 10 µM): < 0.0316 µM
viability, T/C [5]: 88.3%
viability, T/C [6]: 67.7%
viability, T/C [7]: 45.5%
viability, T/C [8]: 26.1%
viability, T/C [9]: 11.8%
viability, T/C [10]: 5.02%
viability, T/C [11]: 75%
viability, T/C [12]: 67.1%
viability, T/C [13]: 42.7%
viability, T/C [14]: 25%
viability, T/C [15]: 11.1%
viability, T/C [16]: 4.24%
viability, T/C [17]: 42.6%
viability, T/C [18]: 41.6%
viability, T/C [19]: 34.4%
viability, T/C [20]: 18.6%
viability, T/C [21]: 8.47%
viability, T/C [22]: 2.6%
viability, T/C [23]: 29.2%
viability, T/C [24]: 30.8%
viability, T/C [25]: 20.7%
viability, T/C [26]: 13.9%
viability, T/C [27]: 7.58%
viability, T/C [28]: 2.44%
viability, T/C (second compound 3.16 µM, first compound 0.0316 µM): 15.4%
viability, T/C (second compound 3.16 µM, first compound 0.1 µM): 13.4%
viability, T/C (second compound 3.16 µM, first compound 0.316 µM): 12.4%
viability, T/C (second compound 3.16 µM, first compound 1 µM): 8.34%
viability, T/C (second compound 3.16 µM, first compound 3.16 µM): 5.31%
viability, T/C (second compound 3.16 µM, first compound 10 µM): 1.74%
viability, T/C (second compound 10 µM, first compound 0.0316 µM): 9.56%
viability, T/C (second compound 10 µM, first compound 0.1 µM): 7.78%
viability, T/C (second compound 10 µM, first compound 0.316 µM): 5.02%
viability, T/C (second compound 10 µM, first compound 1 µM): 5.6%
viability, T/C (second compound 10 µM, first compound 3.16 µM): 3.31%
viability, T/C (second compound 10 µM, first compound 10 µM): 0.93%

Cn1ncc(Cl)c1-c1cc(C(=O)NC(CN)Cc2cccc(F)c2)sc1Cl (stereo unspecified) + CC(Nc1ccc2c(c1)OCCn1cc(N3C(=O)OCC3C(F)F)nc1-2)C(N)=O
IC50 (curve of first compound, second compound 0.00316 µM): 0.285 µM
IC50 (curve of first compound, second compound 0.01 µM): 0.455 µM
IC50 [1]: 0.223 µM
IC50 [2]: < 0.0316 µM
IC50 [3]: < 0.0316 µM
IC50 [4]: < 0.0316 µM
viability, T/C (second compound 0.00316 µM, first compound 0.0316 µM): 82.8%
viability, T/C (second compound 0.00316 µM, first compound 0.1 µM): 69.4%
viability, T/C (second compound 0.00316 µM, first compound 0.316 µM): 51.2%
viability, T/C (second compound 0.00316 µM, first compound 1 µM): 28.9%
viability, T/C (second compound 0.00316 µM, first compound 3.16 µM): 10.6%
viability, T/C (second compound 0.00316 µM, first compound 10 µM): 87.3%
viability, T/C (second compound 0.01 µM, first compound 0.0316 µM): 88.9%
viability, T/C (second compound 0.01 µM, first compound 0.1 µM): 90.2%
viability, T/C (second compound 0.01 µM, first compound 0.316 µM): 52.5%
viability, T/C (second compound 0.01 µM, first compound 1 µM): 27.2%
viability, T/C (second compound 0.01 µM, first compound 3.16 µM): 10.3%
viability, T/C (second compound 0.01 µM, first compound 10 µM): 96.1%
viability, T/C [5]: 67%
viability, T/C [6]: 63.6%
viability, T/C [7]: 43.2%
viability, T/C [8]: 21.7%
viability, T/C [9]: 8.53%
viability, T/C [10]: 64.1%
viability, T/C [11]: 43.8%
viability, T/C [12]: 44%
viability, T/C [13]: 30.7%
viability, T/C [14]: 15.2%
viability, T/C [15]: 7.17%
viability, T/C [16]: 51.4%
viability, T/C [17]: 23.5%
viability, T/C [18]: 25.2%
viability, T/C [19]: 18.6%
viability, T/C [20]: 11%
viability, T/C [21]: 5.52%
viability, T/C [22]: 21.4%
viability, T/C [23]: 13.5%
viability, T/C [24]: 12.6%
viability, T/C [25]: 11.8%
viability, T/C [26]: 8.52%
viability, T/C [27]: 5.53%
viability, T/C [28]: 13.3%

Cn1nccc1Nc1nccc(-c2ccn(C(CO)c3ccc(Cl)c(F)c3)c(=O)c2)n1 (stereo unspecified)
viability, T/C (compound 0.0316 µM): 93.7% [middle of 4 runs]
viability, T/C (compound 0.1 µM): 86.5% [middle of 4 runs]
viability, T/C (compound 0.316 µM): 87.2% [middle of 4 runs]
viability, T/C (compound 1 µM): 79.5% [middle of 4 runs]
viability, T/C (compound 3.16 µM): 65.8% [middle of 4 runs]
viability, T/C (compound 10 µM): 58.5% [middle of 4 runs]
IC50 (curve of compound): > 10 µM and 8.22 µM
